From patent US20230117034A1, “PYRAZOLOTRIAZINES” (Bayer Aktiengesellschaft, priority 2019, published 2023) come the findings set out here.

Assay [1] addresses T1, CDK12 (nuclear staining in CAL-120 cells) (Homo sapiens, UniProt Q9NYV4).
T1 construct: endogenous in cells; host or cells: CAL-120 human breast cancer cells (DSMZ ACC 459)
The experiment in a line: CDK12 nuclear protein level: immunofluorescence/high content analysis (CAL-120). The assay is classed as cell-based. The conditions noted are these: for DC50: CAL-120 cells, 24 h, immunofluorescence, 50% reduction of nuclear CDK12 staining intensity, median, read-out: CDK12 degradation IF, DC50- [mol/l] (median); for (IC50 CDK12 high ATP) to (Degradation DC50 CDK12) ratio: ratio of IC50 CDK12 high ATP kinase assay to DC50 CDK12 degradation (IF, CAL-120). The gist of the method:
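CAL-120 cells were treated with compound for 24 h at 37 °C, fixed with PFA and immunostained for CDK12. Nuclear CDK12 intensity was quantified by automated image analysis and normalized to DMSO and control. DC50 is the concentration giving 50% reduction of nuclear staining.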

Assay [2] concerns the target T2, CDK2/CycE (Homo sapiens, UniProt P24941).
T2 construct: purchased ProQinase GmbH (Freiburg, Germany); host or cells: insect cells (Sf9)
Put plainly: CDK2/CycE kinase assay (TR-FRET, 2 mM ATP). It counts as biochemical. The conditions noted are these: 2 mM ATP (high ATP); median; read-out: CDK2/CyclinE, 2 mM ATP (high ATP), IC50 (median). The gist of the method:
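GST-tagged human CDK2 and CycE from Sf9 cells, about 10 ng/ml, pre-incubated 15 min at 22 °C with compound in Tris/HCl pH 8.0 buffer. Reaction with 2 mM ATP and 0.75 µM biotinylated peptide for 25 min at 22 °C. Phospho-RB antibody TR-FRET (665/620 nm ratio) read after 1 h; data normalised to no-inhibitor and no-enzyme controls.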
(In general: Time-resolved FRET reads energy transfer from a long-lived donor to a nearby acceptor.)

In assay [3] the test system is MDA-MB-231, human breast cancer cells. The experiment in a line: Proliferation assay MDA-MB-231 (crystal violet, 4 days). The conditions noted are these: Homo sapiens, MDA-MB-231, 96 h, MDA-MB-231 cells, median, read-out: Prolif-MDA MB-231, IC50-[mol/l] (median). It counts as cell-based. The essentials: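 Plated 4,000 cells/well, 10% FCS; 24 h later treated 0.01-10 µmol/L cpd (DMSO 0.1%), 4 d. Fix glutaraldehyde, stain 0.1% crystal violet pH 3.0, elute acetic acid, A595. Normalized to t0 plate/untreated; 4-param IC50.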

T1 sequence (Q9NYV4 whole entry): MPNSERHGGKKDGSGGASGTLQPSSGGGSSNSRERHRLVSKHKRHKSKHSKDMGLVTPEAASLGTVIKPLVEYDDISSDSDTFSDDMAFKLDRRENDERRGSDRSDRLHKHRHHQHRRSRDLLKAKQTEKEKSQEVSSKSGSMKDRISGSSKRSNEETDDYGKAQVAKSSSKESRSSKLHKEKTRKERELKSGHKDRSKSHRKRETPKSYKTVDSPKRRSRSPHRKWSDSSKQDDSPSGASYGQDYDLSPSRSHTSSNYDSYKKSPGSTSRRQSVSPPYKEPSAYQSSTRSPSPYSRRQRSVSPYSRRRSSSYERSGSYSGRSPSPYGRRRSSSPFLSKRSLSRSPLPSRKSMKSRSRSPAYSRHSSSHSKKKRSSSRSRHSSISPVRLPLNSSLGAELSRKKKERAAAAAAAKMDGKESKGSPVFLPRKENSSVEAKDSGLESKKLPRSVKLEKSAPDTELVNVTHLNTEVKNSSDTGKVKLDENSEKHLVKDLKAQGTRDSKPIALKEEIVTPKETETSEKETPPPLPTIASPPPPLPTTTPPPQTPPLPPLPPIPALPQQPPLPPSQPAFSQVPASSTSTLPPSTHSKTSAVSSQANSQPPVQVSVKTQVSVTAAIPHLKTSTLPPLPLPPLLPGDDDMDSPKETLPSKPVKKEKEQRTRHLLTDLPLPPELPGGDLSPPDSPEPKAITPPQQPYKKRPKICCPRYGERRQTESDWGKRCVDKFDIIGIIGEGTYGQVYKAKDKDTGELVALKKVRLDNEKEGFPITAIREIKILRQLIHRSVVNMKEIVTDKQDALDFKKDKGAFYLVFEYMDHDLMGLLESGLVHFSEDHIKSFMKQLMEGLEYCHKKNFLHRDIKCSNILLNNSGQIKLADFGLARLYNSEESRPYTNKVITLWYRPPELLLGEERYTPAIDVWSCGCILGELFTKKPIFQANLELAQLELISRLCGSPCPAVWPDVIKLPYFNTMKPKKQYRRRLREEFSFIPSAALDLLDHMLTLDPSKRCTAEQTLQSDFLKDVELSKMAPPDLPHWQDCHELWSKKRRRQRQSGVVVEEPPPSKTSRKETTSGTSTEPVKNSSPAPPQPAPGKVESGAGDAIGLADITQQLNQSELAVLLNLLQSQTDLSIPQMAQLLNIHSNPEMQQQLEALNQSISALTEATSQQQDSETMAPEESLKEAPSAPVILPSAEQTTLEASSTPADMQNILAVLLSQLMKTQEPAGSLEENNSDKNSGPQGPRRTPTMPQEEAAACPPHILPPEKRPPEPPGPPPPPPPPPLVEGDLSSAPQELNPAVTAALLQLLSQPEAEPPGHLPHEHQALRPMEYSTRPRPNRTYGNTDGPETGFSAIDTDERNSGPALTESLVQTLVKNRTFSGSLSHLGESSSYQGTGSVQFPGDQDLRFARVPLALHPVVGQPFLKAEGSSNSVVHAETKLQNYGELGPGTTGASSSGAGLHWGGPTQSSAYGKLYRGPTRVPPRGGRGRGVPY
T1 sequence (O75909 whole entry partner): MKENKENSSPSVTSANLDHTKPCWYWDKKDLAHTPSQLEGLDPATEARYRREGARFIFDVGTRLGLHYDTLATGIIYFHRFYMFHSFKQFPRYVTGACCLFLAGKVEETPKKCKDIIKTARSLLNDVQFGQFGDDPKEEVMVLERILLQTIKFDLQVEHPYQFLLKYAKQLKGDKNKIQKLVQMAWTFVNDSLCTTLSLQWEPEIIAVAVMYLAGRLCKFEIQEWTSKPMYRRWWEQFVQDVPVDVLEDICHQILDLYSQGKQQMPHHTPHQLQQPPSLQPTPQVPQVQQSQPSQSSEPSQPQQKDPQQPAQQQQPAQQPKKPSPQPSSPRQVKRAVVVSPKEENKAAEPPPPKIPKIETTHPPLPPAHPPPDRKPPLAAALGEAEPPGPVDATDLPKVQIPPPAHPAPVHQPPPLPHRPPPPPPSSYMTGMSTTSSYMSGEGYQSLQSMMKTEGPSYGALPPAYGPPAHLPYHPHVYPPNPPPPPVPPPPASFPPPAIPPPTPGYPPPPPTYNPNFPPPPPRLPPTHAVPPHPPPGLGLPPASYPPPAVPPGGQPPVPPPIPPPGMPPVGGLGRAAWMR

Take `Fc1ccc2[nH]c(CNc3nc(N4CC5CCC(C4)N5)nc4c(C(F)(F)F)cnn34)nc2c1F` [Example 310, 2-(3,8-diazabicyclo[3.2.1]octan-3-yl)-N-[(4,5-difluoro-1H-benzimidazol-2-yl)methyl]-8-(trifluoromethyl)pyrazolo[1,5-a][1,3,5]triazin-4-amine]: in assay [1], the DC50 is 17.3 nM and the “(IC50 CDK12 high ATP) to (Degradation DC50 CDK12) ratio” value is on record as 75. The IC50 in assay [2] is over 18600 nM. In addition, in assay [3], the IC50 is 3.48 nM.

Turning to `Clc1cc2nc(CNc3nc(N4CCOCC4)nc4c(C5CC5)cnn34)[nH]c2cc1Cl` [Example 301, 8-cyclopropyl-N-[(5,6-dichloro-1H-benzimidazol-2-yl)methyl]-2-(morpholin-4-yl)pyrazolo[1,5-a][1,3,5]triazin-4-amine], in assay [1], the DC50 worked out at 4.37 nM and the “(IC50 CDK12 high ATP) to (Degradation DC50 CDK12) ratio” value is reported as 270. Further, the IC50 in assay [2] is over 20000 nM. For the same compound, the IC50 in assay [3] was 7.75 nM.

`Fc1ccc2[nH]c(CNc3nc(N4CCOCC4)nc4c(C5CC5(F)F)cnn34)nc2c1` (single isomer, unassigned) [Example 314, 8-[(1R or S)-2,2-difluorocyclopropyl]-N-[(5-fluoro-1H-benzimidazol-2-yl)methyl]-2-(morpholin-4-yl)pyrazolo[1,5-a][1,3,5]triazin-4-amine]: in assay [1], the DC50 is 8.47 nM and the “(IC50 CDK12 high ATP) to (Degradation DC50 CDK12) ratio” value is recorded as 1171. The IC50 in assay [2] is over 20000 nM. Besides, in assay [3], the IC50 came out at 31.3 nM.

For `Fc1cccc2[nH]c(CNc3nc(N4CCOCC4)nc4c(C(F)(F)F)cnn34)nc12` [Example 274, N-[(4-fluoro-1H-benzimidazol-2-yl)methyl]-2-(morpholin-4-yl)-8-(trifluoromethyl)pyrazolo[1,5-a][1,3,5]triazin-4-amine], in assay [1], the DC50 was 0.881 nM. For the same compound, in assay [1], the “(IC50 CDK12 high ATP) to (Degradation DC50 CDK12) ratio” value is 64. Moreover, the IC50 in assay [2] was over 12900 nM; in assay [3], 6.74 nM.

As for `OCC1CN(c2nc(NCc3nc4ccccc4[nH]3)n3ncc(Br)c3n2)C1` [Example 304, [1-(4-{[(1H-benzimidazol-2-yl)methyl]amino}-8-bromopyrazolo[1,5-a][1,3,5]triazin-2-yl)azetidin-3-yl]methanol], in assay [1], the DC50 is 74.6 nM and the “(IC50 CDK12 high ATP) to (Degradation DC50 CDK12) ratio” value is 167. The IC50 in assay [2] turned out to be 8430 nM. The IC50 in assay [3] is 299 nM.

In the case of `Brc1cnn2c(NCc3nc4ccccc4[nH]3)nc(N3C[C@H]4CC[C@@H]3CN4)nc12` (single isomer, unassigned) [Example 316, N-[(1H-benzimidazol-2-yl)methyl]-8-bromo-2-{[1R or S-(1R*4R*)]-2,5-diazabicyclo[2.2.2]octan-2-yl}pyrazolo[1,5-a][1,3,5]triazin-4-amine], in assay [1], the DC50 was 5.62 nM and the “(IC50 CDK12 high ATP) to (Degradation DC50 CDK12) ratio” value is 519. Moreover, in assay [2], the IC50 came to 284 nM. Also, in assay [3], the IC50 was found to be 22.8 nM.

For the compound `Fc1ccc2[nH]c(CNc3nc(N4CCOCC4)nc4c(C5CC5(F)F)cnn34)nc2c1F` (stereo not shown) [Example 278, N-[(4,5-difluoro-1H-benzimidazol-2-yl)methyl]-8-(2,2-difluorocyclopropyl)-2-(morpholin-4-yl)pyrazolo[1,5-a][1,3,5]triazin-4-amine], in assay [1], the DC50 stood at 1.18 nM and the “(IC50 CDK12 high ATP) to (Degradation DC50 CDK12) ratio” value worked out at 2070. For the same compound, the IC50 in assay [2] is over 20000 nM. In assay [3], the IC50 was 17.4 nM.

With `CCNC1CCN(c2nc(NCc3nc4ccccc4[nH]3)n3ncc(Br)c3n2)CC1` [Example 300], in assay [1], the DC50 came out at 17.9 nM and the “(IC50 CDK12 high ATP) to (Degradation DC50 CDK12) ratio” value is listed as over 1120. In addition, the IC50 in assay [2] was over 19700 nM. The IC50 in assay [3] was 106 nM.

On to `Fc1ccc2[nH]c(CNc3nc(N4CCOCC4)nc4c(CC(F)(F)F)cnn34)nc2c1F` [Example 268, N-[(4,5-difluoro-1H-benzimidazol-2-yl)methyl]-2-(morpholin-4-yl)-8-(2,2,2-trifluoroethyl)pyrazolo[1,5-a][1,3,5]triazin-4-amine], for which, in assay [1], the DC50 was 1.9 nM and the “(IC50 CDK12 high ATP) to (Degradation DC50 CDK12) ratio” value was found to be 1120. The IC50 in assay [2] is over 20000 nM. The IC50 in assay [3] was 9.43 nM.

Take `Brc1cnn2c(NCc3nnc(-c4ccccc4)[nH]3)nc(N3CCOCC3)nc12` [Example 24, 8-bromo-2-(morpholin-4-yl)-N-[(5-phenyl-4H-1,2,4-triazol-3-yl)methyl]pyrazolo[1,5-a][1,3,5]triazin-4-amine]: in assay [1], the DC50 turned out to be 7.78 nM and the “(IC50 CDK12 high ATP) to (Degradation DC50 CDK12) ratio” value was 564. Also, the IC50 in assay [2] turned out to be 2320 nM. The IC50 in assay [3] turned out to be 53.3 nM.

Turning to `CN1CCN(c2nc(NCc3nc4cc(Cl)ccc4[nH]3)n3ncc(C(F)(F)F)c3n2)CC1` [Example 298, N-[(5-chloro-1H-benzimidazol-2-yl)methyl]-2-(4-methylpiperazin-1-yl)-8-(trifluoromethyl)pyrazolo[1,5-a][1,3,5]triazin-4-amine], in assay [1], the DC50 is 4.22 nM and the “(IC50 CDK12 high ATP) to (Degradation DC50 CDK12) ratio” value stood at 1968. Besides, the IC50 in assay [2] was over 19500 nM. For the same compound, in assay [3], the IC50 came to 10.5 nM.

As to `Fc1cccc2[nH]c(CNc3nc(N4C[C@H]5CC[C@@H](C4)N5)nc4c(C5CC5)cnn34)nc12` [Example 296, 8-cyclopropyl-2-[(1R,5S)-3,8-diazabicyclo[3.2.1]octan-3-yl]-N-[(4-fluoro-1H-benzimidazol-2-yl)methyl]pyrazolo[1,5-a][1,3,5]triazin-4-amine], in assay [1], the DC50 stood at 2.55 nM and the “(IC50 CDK12 high ATP) to (Degradation DC50 CDK12) ratio” value is recorded as 971. In addition, in assay [2], the IC50 is 5610 nM. Besides, in assay [3], the IC50 was found to be 4.4 nM.

As to `NC1CCN(c2nc(NCc3nc4ccccc4[nH]3)n3ncc(Br)c3n2)CC1` [Example 256, 2-(4-aminopiperidin-1-yl)-N-[(1H-benzimidazol-2-yl)methyl]-8-bromopyrazolo[1,5-a][1,3,5]triazin-4-amine], the DC50 in assay [1] is 3.53 nM. For the same compound, the “(IC50 CDK12 high ATP) to (Degradation DC50 CDK12) ratio” value in assay [1] is over 5662. The IC50 in assay [2] is 5060 nM; in assay [3], 12.6 nM.

Regarding `Fc1ccc2[nH]c(CNc3nc(N4CCOCC4)nc4c(CC(F)(F)F)cnn34)nc2c1` [Example 308, N-[(5-fluoro-1H-benzimidazol-2-yl)methyl]-2-(morpholin-4-yl)-8-(2,2,2-trifluoroethyl)pyrazolo[1,5-a][1,3,5]triazin-4-amine], in assay [1], the DC50 was determined as 4.93 nM and the “(IC50 CDK12 high ATP) to (Degradation DC50 CDK12) ratio” value is 1297. Also, the IC50 in assay [2] is over 20000 nM. Further, the IC50 in assay [3] was found to be 27.9 nM.

`Brc1cnn2c(NCc3ncc(-c4ccccc4)[nH]3)nc(N3CCOCC3)nc12` [Example 23, 8-bromo-2-(morpholin-4-yl)-N-[(5-phenyl-1H-imidazol-2-yl)methyl]pyrazolo[1,5-a][1,3,5]triazin-4-amine]: in assay [1], the DC50 was 3.45 nM and the “(IC50 CDK12 high ATP) to (Degradation DC50 CDK12) ratio” value turned out to be 452. Also, the IC50 in assay [2] was determined as 1410 nM. In addition, in assay [3], the IC50 turned out to be 33.9 nM.

For `CN(CC(C)(C)O)c1nc(NCc2nc3c(F)cccc3[nH]2)n2ncc(C3CC3)c2n1` [Example 295, 1-[(8-cyclopropyl-4-{[(4-fluoro-1H-benzimidazol-2-yl)methyl]amino}pyrazolo[1,5-a][1,3,5]triazin-2-yl)(methyl)amino]-2-methylpropan-2-ol], in assay [1], the DC50 was found to be 3.52 nM and the “(IC50 CDK12 high ATP) to (Degradation DC50 CDK12) ratio” value came out at 235. Besides, in assay [2], the IC50 was found to be 2060 nM. In addition, the IC50 in assay [3] came to 23.7 nM.

For the compound `CN(CC(C)(C)O)c1nc(NCc2nc3cc(F)c(Cl)cc3[nH]2)n2ncc(C3CC3)c2n1` [Example 317, 1-[(4-{[(6-chloro-5-fluoro-1H-benzimidazol-2-yl)methyl]amino}-8-cyclopropylpyrazolo[1,5-a][1,3,5]triazin-2-yl)(methyl)amino]-2-methylpropan-2-ol], the DC50 in assay [1] stood at 5.47 nM. Moreover, the “(IC50 CDK12 high ATP) to (Degradation DC50 CDK12) ratio” value in assay [1] amounted to 179. Besides, the IC50 in assay [2] turned out to be 10700 nM; in assay [3] it was 5.21 nM.

For the compound `Fc1ccc2[nH]c(CNc3nc(N4CCOCC4)nc4c(C5CCOCC5)cnn34)nc2c1F` [Example 276, N-[(4,5-difluoro-1H-benzimidazol-2-yl)methyl]-2-(morpholin-4-yl)-8-(oxan-4-yl)pyrazolo[1,5-a][1,3,5]triazin-4-amine], the DC50 in assay [1] was 38.8 nM. Further, the “(IC50 CDK12 high ATP) to (Degradation DC50 CDK12) ratio” value in assay [1] was over 516. Also, the IC50 in assay [2] was over 20000 nM; in assay [3], 258 nM.

In the case of `CC(C)CNc1nc(NCc2nc3ccccc3[nH]2)n2ncc(Br)c2n1` [Example 285, N^4-[(1H-benzimidazol-2-yl)methyl]-8-bromo-N^2-(2-methylpropyl)pyrazolo[1,5-a][1,3,5]triazine-2,4-diamine], in assay [1], the DC50 came to 32.3 nM and the “(IC50 CDK12 high ATP) to (Degradation DC50 CDK12) ratio” value is 200. Besides, the IC50 in assay [2] amounted to 2550 nM. Moreover, the IC50 in assay [3] is 90.6 nM.
